Patent publication US5593835A, “Methods and kits for RNA binding compounds” (President and Fellows of Harvard College, priority 1995, dated 1997)
Where two headings read alike, the source gives them in different places.

Legend:
[1] = molecular target: X1 RNA (SEQ ID NO: 3 in Table 3; SEQ ID NO:2 in text); experiment: Fluorescence binding measurements, X1 RNA
Description: The binding of tobramycin to two cloned RNAs X1 (SEQ ID NO:2) and J6 (SEQ ID NO:5), representative of both classes of consensus sequences, was measured using the fluorescence techniques described in the exemplification.
(§1) Steady state fluorescence measurements were performed on a double beam fluorescence spectrometer (Perkin-Elmer Model 512, Norwalk, Conn.). The excitation wavelength was 341 nm. All measurements were done at 20° C. in 140 mM NaCl, 5 mM KCl, 1 mM CaCl2, 1 mM MgCl2, and 20 mM HEPES, pH 7.4. The KD of the PYT and the RNA aptamer was calculated by the curve fitting of the fluorescence intensity as a function of RNA concentration, using the following equation
(§2) Competition binding measurements of antibiotics with RNA and PYT were performed at constant concentrations of PYT and RNA by monitoring fluorescence intensity changes as a function of changing concentrations of the antibiotics (a standard fluorescence curve). The KD s for the antibiotics were calculated by the curve fitting of the fluorescence intensity of PYT as a function of antibiotic concentration, using the following equation: […]

[2] = molecular target: random selected RNA pool (low stringency tobramycin column); experiment: Fluorescence assay, average binding of the random selected RNA pool; settings: overall selected pool mixture
Description: To determine whether the W13 RNA clone is representative of the average binding capacity of the random selected RNA pool, the average KD values for the random selected pool were measured. […] Therefore, the W13 RNA is representative of the average binding capacity of the random selected pool.
as §1, §2

[3] = tested on: RNA pool transcribed from DNA after the sixth selection, bound to tobramycin affinity column; experiment: Elution of bound RNA from tobramycin affinity column; assay type: binding; settings: 3 column volumes of 10 mM tobramycin
Excerpt: Elution patterns of the RNA from the columns are shown in FIG. 4 for the second and sixth selections. Over 6 cycles of selection, the percentages of RNA specifically eluted with tobramycin were <0.1%, 3.0%, 2.9%, 26%, 55%, and 82%. […] The RNA pool transcribed from DNA after the sixth selection could not be eluted from the affinity column, even after 100 column volumes of selection buffer.
An N-hydroxysuccinimide Affi-Gel affinity column (Bio-Rad, Hercules, Calif.) was derivatized with either 20 μmoles or 0.075 μmoles tobramycin per ml of gel to generate the affinity columns. Excess N-hydroxysuccinimide linkages were blocked by adding 1M ethanolamine. The resulting column served as the support for the RNA selections. The tobramycin concentration on column was estimated as about 15 mM. Selections were performed in 1 ml column volumes in a buffer (selection buffer) containing 140 mM NaCl, 5 mM KCl, 1 mM CaCl2, 1 mM MgCl2, and 20 mM Tris acetate, pH 7.4 (Bock et al. (1992) Nature 355: 564-566). A 1 ml Affi-Gel 10 pre-column treated with ethanolamine was used in all selections.
The original double stranded DNA pool was constructed by large scale PCR amplification of the synthesized 109mer random DNA pool (Oligos, Etc., Inc., Wilsonville, Oreg.) containing 60 random nucleotides. […]

RRE region of HIV RNA = experiment: Fluorescence binding and competitive binding to RRE RNA; settings: competition, 100 nM RNA, 15 nM fluorescent tobramycin, 20° C., pH 7.4; read-out: Dissociation Constant (KD) RRE RNA
Description: (§3) In order to quantitatively determine whether fluorescently labelled tobramycin and other antibiotics bind directly to the RRE region and/or to other regions of the HIV RNA, and with what affinity, the RRE and TAR regions of HIV RNA were prepared and used in the method of the invention as target RNAs.
For binding studies, different concentrations of RRE RNA (from 0 to 300 nm) were mixed with a constant concentration (15 nM) PYT in Binding buffer (140 mM NaCl, 1 mM MgCl2, 20 mM HEPES, pH 7.4), 2 ml total volume, for 1-5 min. at 20° C. in a semimicro-cell cuvette. The fluorescence was measured on a Perkin-Elmer Model 512 double beam fluorescence spectrophotometer. The excitation wavelength used was 330 nm. The intensities of fluorescence emission at 390 nm were used to calculate dissociation constants. Generally 8 to 12 points were used for calculation.
(§4) In other competitive binding studies, TAR or RRE RNA was added at a constant concentration of 100 nM±5% and PYT at 15 nM. Different concentrations of competitive antibiotic (tobramycin (o-60 μM), gentamicin C (0-100 μM), neomycin B (0-4 μM), or lividomycin A (0-100 μM) or Rev protein (0-6 μM) were mixed with constant concentrations of RNA (100 nM TAR or RRE) and C1PYT (15 nM), in Binding buffer (140 mM NaCl, 5 mM KCl, 1 mM MgCl2, 20 mM HEPES, pH 7.4), 2 ml total volume, for 1-5 min. at 20° C. in a semimicrocell cuvette. The fluorescence was measured on a Perkin-Elmer Model 512 double beam fluorescence spectrophotometer. The excitation wavelength used was 330 nm. The intensities of fluorescence emission at 390 nm were used to calculate dissociation constants. Generally 8 to 12 points were used for calculation.
Wild type and mutant RRE RNAs were transcribed in vitro by T7 RNA polymerase using synthetic oligonucleotide templates, as described by Milligan et al. (Meth. Enzymol. (1989) 180: 51-62).
as §2

TAR region of HIV RNA = experiment: Fluorescence binding and competitive binding to TAR RNA; settings: competition, 100 nM RNA, 15 nM fluorescent tobramycin, 20° C., pH 7.4; read-out: Dissociation Constant (KD) TAR RNA
Description: as §3, §4
Competition binding measurements of antibiotics with RNA and PYT were performed at constant concentrations of PYT and RNA by monitoring fluorescence intensity changes as a function of changing concentrations of the antibiotics (a standard fluorescence curve). […]

`NC[C@H]1O[C@H](O[C@H]2[C@H](O)[C@@H](O[C@H]3O[C@H](CO)[C@@H](O)[C@H](N)[C@H]3O)[C@H](N)C[C@@H]2N)[C@H](N)C[C@@H]1O` [tobramycin] showed a Kd ([1]; K1 - high affinity, read-out: Dissociation Constants K1(TOB)) of 0.003 ± 0.001 µM, a Kd ([1]; K2 - low affinity, read-out: Dissociation Constants K2(TOB)) of 15.9 ± 0.7 µM and a Kd [2] of 8.8 ± 0.3 µM. For the same compound, the “RNA eluted from tobramycin affinity column” value [3] was 96%, the Kd (RRE region of HIV RNA) was 2.32 ± 0.28 µM and the Kd (TAR region of HIV RNA) was 19.1 ± 1.1 µM.
